Assay results from patent publication US20240376114A1, “NUCLEAR TRANSPORT MODULATORS AND USES THEREOF” (Karyopharm Therapeutics Inc., priority 2011, published 2024).

Assay: CellTiter 96 AQueous One Solution (MTS) cell proliferation assay
Type: cell-based
Conditions: human, MM.1S multiple myeloma cells; MM.1S cells, 72 h treatment; read-out: Cytotoxicity [EC50]
Excerpt: The CellTiter 96® AQueous One Solution cell proliferation assay (Promega) was used on MM.1S multiple myeloma cell line to study the cytotoxic and cytostatic properties of the compounds. The assay is based on the cleavage of the tetrazolium salt, MTS, in the presence of an electron-coupling reagent PES (phenazine ethosulfate). The MTS tetrazolium compound is bioreduced by cells into a colored formazan product that is soluble in tissue culture medium. This conversion is presumably accomplished by NADPH or NADH produced by dehydrogenase enzymes in metabolically active cells. Assays are performed by adding a small amount of the CellTiter 96® AQueous One solution reagent directly to culture wells, incubating for 1-4 hours and then recording the absorbance at 490 nm with a 96-well plate reader.
The cells were seeded at 5×10^3 to 1.5×10^4 cells (depending on cell type) in each well of a 96-well plate in 100 μL of fresh culture medium and adherent cells were allowed to attach overnight. The stock solutions of the compounds were diluted in cell culture medium to obtain eight concentrations of each drug, ranging from 1 nM to 30 μM and DMSO at less than 1% v/v was used as a negative control. The resulting drug solutions were transferred onto the cells. After 72 h of treatment, 20 μl of CellTiter 96® AQueous reagent was added into each well of the 96-well assay plates and the plate was incubated at 37° C. for 1-4 hours in a humidified, 5% CO2 atmosphere. Then the absorbance of each well was recorded at 490 nm using a 96-well plate reader. In most cases, the assay was performed in triplicate and the results were presented as half maximal inhibitory concentration (IC50). Optical density versus compound concentration was plotted and analyzed using non-linear regression equations (IDBS XLfit) and the IC50 for each compound was calculated.

SMILES	EC50 at 72 h
O=C(/C=C\n1cnc(-c2cc(C(F)(F)F)cc(C(F)(F)F)c2)n1)NCc1cncnc1 [Compound 14, (Z)-3-(3-(3,5-bis(trifluoromethyl)phenyl)-1H-1,2,4-triazol-1-yl)-N-(pyrimidin-5-ylmethyl)acrylamide]	< 1 µM
Cc1ncc(CNC(=O)/C=C\n2cnc(-c3cc(C(F)(F)F)cc(C(F)(F)F)c3)n2)c(C)n1 [Compound 31, (Z)-3-(3-(3,5-bis(trifluoromethyl)phenyl)-1H-1,2,4-triazol-1-yl)-N-((2,4-dimethylpyrimidin-5-yl)methyl)acrylamide]	< 1 µM
O=C(/C=C\n1cnc(-c2cc(C(F)(F)F)cc(C(F)(F)F)c2)n1)N1CC(O)(C(F)(F)F)C1 [Compound 51, (Z)-3-(3-(3,5-bis(trifluoromethyl)phenyl)-1H-1,2,4-triazol-1-yl)-1-(3-hydroxy-3-(trifluoromethyl)azetidin-1-yl)prop-2-en-1-one]	< 1 µM
O=C(/C=C\N1CCC(c2cc(C(F)(F)F)cc(C(F)(F)F)c2)C1)N1CC(F)(F)C1 (centres unmarked) [Compound 43, (Z)-3-(3-(3,5-bis(trifluoromethyl)phenyl)pyrrolidin-1-yl)-1-(3,3-difluoroazetidin-1-yl)prop-2-en-1-one]	> 10 µM
O=C(/C=C\n1cnc(-c2cc(C(F)(F)F)c(Cl)c(C(F)(F)F)c2)n1)N1CC(F)(F)C1 [Compound 59, (Z)-3-(3-(4-chloro-3,5-bis(trifluoromethyl)phenyl)-1H-1,2,4-triazol-1-yl)-1-(3,3-difluoroazetidin-1-yl)prop-2-en-1-one]	< 1 µM
O=C(/C=C\n1cnc(-c2cc(C(F)(F)F)cc(C(F)(F)F)c2)c1)N1CC(F)(F)C1 [Compound 16, (Z)-3-(4-(3,5-bis(trifluoromethyl)phenyl)-1H-imidazol-1-yl)-1-(3,3-difluoroazetidin-1-yl)prop-2-en-1-one]	< 1 µM
O=C(/C=C\n1cnc(-c2cc(C(F)(F)F)cc(C(F)(F)F)c2)n1)N1CCC(F)(F)CC1 [Example 6, (Z)-3-(3-(3,5-bis(trifluoromethyl)phenyl)-1H-1,2,4-triazol-1-yl)-1-(4,4-difluoropiperidin-1-yl)prop-2-en-1-one]	1 to 10 µM
CN1CCC(CNC(=O)/C=C\n2cnc(-c3cc(C(F)(F)F)cc(C(F)(F)F)c3)n2)CC1 [Compound 26, (Z)-3-(3-(3,5-bis(trifluoromethyl)phenyl)-1H-1,2,4-triazol-1-yl)-N-((1-methylpiperidin-4-yl)methyl)acrylamide]	< 1 µM
COC(=O)C1(F)CN(C(=O)/C=C\n2cnc(-c3cc(C(F)(F)F)cc(C(F)(F)F)c3)n2)C1 [Compound 61, (Z)-methyl 1-(3-(3-(3,5-bis(trifluoromethyl)phenyl)-1H-1,2,4-triazol-1-yl)acryloyl)-3-fluoroazetidine-3-carboxylate]	< 1 µM
CCN(C(=O)/C=C\n1cnc(-c2cc(C(F)(F)F)cc(C(F)(F)F)c2)n1)C(C)c1cccnc1 (centres unmarked) [Example 10, (Z)-3-(3-(3,5-bis(trifluoromethyl)phenyl)-1H-1,2,4-triazol-1-yl)-N-ethyl-N-(1-(pyridin-3-yl)ethyl)acrylamide]	1 to 10 µM
O=C(/C=C\n1cnc(-c2cc(C(F)(F)F)cc(C(F)(F)F)c2)n1)N1CCCC(F)(F)C1 [Example 5, (Z)-3-(3-(3,5-bis(trifluoromethyl)phenyl)-1H-1,2,4-triazol-1-yl)-1-(3,3-difluoropiperidin-1-yl)prop-2-en-1-one]	1 to 10 µM
O=C(/C=C\n1cnc(-c2cc(C(F)(F)F)nc(C(F)(F)F)c2)n1)N1CC(F)(F)C1 [Example 9, (Z)-3-(3-(2,6-bis(trifluoromethyl)pyridin-4-yl)-1H-1,2,4-triazol-1-yl)-1-(3,3-difluoroazetidin-1-yl)prop-2-en-1-one]	< 1 µM
Cc1ncc(CNC(=O)/C=C\n2cnc(-c3cc(C(F)(F)F)cc(C(F)(F)F)c3)n2)cn1 [Compound 13, (Z)-3-(3-(3,5-bis(trifluoromethyl)phenyl)-1H-1,2,4-triazol-1-yl)-N-((2-methylpyrimidin-5-yl)methyl)acrylamide]	1 to 10 µM
O=C(/C=C\n1cnc(-c2cc(C(F)(F)F)cc(C(F)(F)F)c2)n1)N1CCC(O)CC1 [Compound 66, (Z)-3-(3-(3,5-bis(trifluoromethyl)phenyl)-1H-1,2,4-triazol-1-yl)-1-(4-hydroxypiperidin-1-yl)prop-2-en-1-one]	< 1 µM
O=C(/C=C\n1cnc(-c2cc(C(F)(F)F)cc(C(F)(F)F)c2)n1)N1CC2(CNC2)C1 [Compound 52, (Z)-3-(3-(3,5-bis(trifluoromethyl)phenyl)-1H-1,2,4-triazol-1-yl)-1-(2,6-diazaspiro[3.3]heptan-2-yl)prop-2-en-1-one 2,2,2-trifluoroacetate]	< 1 µM
CN(C)CC1(F)CN(C(=O)/C=C\n2cnc(-c3cc(C(F)(F)F)cc(C(F)(F)F)c3)n2)C1 [Compound 63, (Z)-3-(3-(3,5-bis(trifluoromethyl)phenyl)-1H-1,2,4-triazol-1-yl)-1-(3-((dimethylamino)methyl)-3-fluoroazetidin-1-yl)prop-2-en-1-one]	< 1 µM
O=C1CC(c2cc(C(F)(F)F)cc(C(F)(F)F)c2)CN1/C=C\C(=O)N1CC(F)(F)C1 (centres unmarked) [Compound 64, (Z)-4-(3,5-bis(trifluoromethyl)phenyl)-1-(3-(3,3-difluoroazetidin-1-yl)-3-oxoprop-1-enyl)pyrrolidin-2-one]	> 10 µM
CN1CCC(CNC(=O)/C=C\n2cnc(-c3cc(C(F)(F)F)cc(C(F)(F)F)c3)n2)C1 (centres unmarked) [Compound 30, (Z)-3-(3-(3,5-bis(trifluoromethyl)phenyl)-1H-1,2,4-triazol-1-yl)-N-((1-methylpyrrolidin-3-yl)methyl)acrylamide]	< 1 µM
CN(Cc1cncnc1)C(=O)/C=C\n1cnc(-c2cc(C(F)(F)F)cc(C(F)(F)F)c2)n1 [Compound 17, (Z)-3-(3-(3,5-bis(trifluoromethyl)phenyl)-1H-1,2,4-triazol-1-yl)-N-methyl-N-(pyrimidin-5-ylmethyl)acrylamide]	1 to 10 µM
O=C(/C=C\n1cnc(-c2cc(C(F)(F)F)cc(C(F)(F)F)c2)n1)N1CC(c2ccccn2)C1 [Compound 24, (Z)-3-(3-(3,5-bis(trifluoromethyl)phenyl)-1H-1,2,4-triazol-1-yl)-1-(3-(pyridin-2-yl)azetidin-1-yl)prop-2-en-1-one]	< 1 µM
O=C(/C=C\n1cnc(-c2cc(C(F)(F)F)cc(C(F)(F)F)c2)n1)NC1CCc2ncccc21 (centres unmarked) [Compound 28, (Z)-3-(3-(3,5-bis(trifluoromethyl)phenyl)-1H-1,2,4-triazol-1-yl)-N-(6,7-dihydro-5H-cyclopenta[b]pyridin-5-yl)acrylamide]	1 to 10 µM
O=C(/C=C\n1ccc(-c2cc(C(F)(F)F)cc(C(F)(F)F)c2)n1)N1CC(F)(F)C1 [Compound 35, (Z)-3-(3-(3,5-bis(trifluoromethyl)phenyl)-1H-pyrazol-1-yl)-1-(3,3-difluoroazetidin-1-yl)prop-2-en-1-one]	< 1 µM
[2H]/C(=C/n1nc(-c2cc(C(F)(F)F)cc(C(F)(F)F)c2)nc1[2H])C(=O)N1CC(F)(F)C1 [Compound 40, D2-(Z)-3-(3-(3,5-bis(trifluoromethyl)phenyl)-1H-1,2,4-triazol-1-yl)-1-(3,3-difluoroazetidin-1-yl)prop-2-en-1-one]	< 1 µM
O=C(/C=C\n1cnc(-c2cc(O)cc(C(F)(F)F)c2)n1)N1CC(F)(F)C1 [Example 3, (Z)-1-(3,3-difluoroazetidin-1-yl)-3-(3-(3-hydroxy-5-(trifluoromethyl)phenyl)-1H-1,2,4-triazol-1-yl)prop-2-en-1-one]	< 1 µM
O=C(/C=C\n1cnc(-c2cc(C(F)(F)F)cc(C(F)(F)F)c2)n1)N1CCC(F)(F)C1 [Compound 20, (Z)-3-(3-(3,5-bis(trifluoromethyl)phenyl)-1H-1,2,4-triazol-1-yl)-1-(3,3-difluoropyrrolidin-1-yl)prop-2-en-1-one]	< 1 µM
CN1CCCC(CNC(=O)/C=C\n2cnc(-c3cc(C(F)(F)F)cc(C(F)(F)F)c3)n2)C1 (centres unmarked) [Compound 27, (Z)-3-(3-(3,5-bis(trifluoromethyl)phenyl)-1H-1,2,4-triazol-1-yl)-N-((1-methylpiperidin-3-yl)methyl)acrylamide]	< 1 µM
O=C(/C=C\n1cnc(-c2cc(C(F)(F)F)cc(C(F)(F)F)c2)n1)N1CC(O)C1 [Compound 53, (Z)-3-(3-(3,5-bis(trifluoromethyl)phenyl)-1H-1,2,4-triazol-1-yl)-1-(3-hydroxyazetidine-1-yl)prop-2-en-1-one]	< 1 µM
CC(NC(=O)/C=C\n1cnc(-c2cc(C(F)(F)F)cc(C(F)(F)F)c2)n1)c1cnccn1 (centres unmarked) [Compound 29, (Z)-3-(3-(3,5-bis(trifluoromethyl)phenyl)-1H-1,2,4-triazol-1-yl)-N-(1-(pyrazin-2-yl)ethyl)acrylamide]	1 to 10 µM
Cc1ncc(CN(C)C(=O)/C=C\n2cnc(-c3cc(C(F)(F)F)cc(C(F)(F)F)c3)n2)cn1 [Compound 18, (Z)-3-(3-(3,5-bis(trifluoromethyl)phenyl)-1H-1,2,4-triazol-1-yl)-N-methyl-N-((2-methylpyrimidin-5-yl)methyl)acrylamide]	1 to 10 µM
